Data on 1 compound can be found in ChEMBL document CHEMBL3526034 (Drug Metab Dispos, 2013).

The target in series [1] is T1, BCRP (ABCG2) (Homo sapiens, UniProt Q9UNQ0).
T1 sequence (Q9UNQ0 whole entry): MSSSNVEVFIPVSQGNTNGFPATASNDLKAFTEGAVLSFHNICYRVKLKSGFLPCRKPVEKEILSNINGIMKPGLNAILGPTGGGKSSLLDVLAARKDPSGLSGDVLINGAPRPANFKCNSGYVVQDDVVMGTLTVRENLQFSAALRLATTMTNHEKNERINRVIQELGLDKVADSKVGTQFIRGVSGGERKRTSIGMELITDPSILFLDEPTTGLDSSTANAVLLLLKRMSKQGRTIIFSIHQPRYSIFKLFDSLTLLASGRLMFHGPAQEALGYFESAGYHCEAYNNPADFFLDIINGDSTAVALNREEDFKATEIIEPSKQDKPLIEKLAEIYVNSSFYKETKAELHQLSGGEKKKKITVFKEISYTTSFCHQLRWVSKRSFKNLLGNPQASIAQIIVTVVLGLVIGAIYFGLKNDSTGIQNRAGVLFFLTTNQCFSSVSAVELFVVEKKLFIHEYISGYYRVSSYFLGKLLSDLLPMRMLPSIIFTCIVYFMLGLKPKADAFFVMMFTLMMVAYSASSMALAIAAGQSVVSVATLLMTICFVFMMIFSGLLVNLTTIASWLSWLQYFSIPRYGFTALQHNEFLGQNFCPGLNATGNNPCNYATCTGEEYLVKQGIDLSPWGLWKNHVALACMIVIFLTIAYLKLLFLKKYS
The experiment in a line: Activity at human BCRP expressed in MDCK2 cells assessed as apical to basolateral mass balance at 3 uM by liquid scintillation counting analysis. It is filed as ADME, cell-based, MDCK-II. The settings on record: read-out: Activity.

In series [2] the target is Cytochrome P450 2C9 (Homo sapiens, UniProt P11712). The experiment in a line: Drug metabolism in supersomes expressing human recombinant CYP2C9 assessed as NADPH-fortified enzyme-mediated metabolite formation at 5 uM after 120 mins by radio HPLC analysis. It is filed as ADME. The conditions noted are these: 2 h.
Cytochrome P450 2C9, sequence (P11712 whole entry): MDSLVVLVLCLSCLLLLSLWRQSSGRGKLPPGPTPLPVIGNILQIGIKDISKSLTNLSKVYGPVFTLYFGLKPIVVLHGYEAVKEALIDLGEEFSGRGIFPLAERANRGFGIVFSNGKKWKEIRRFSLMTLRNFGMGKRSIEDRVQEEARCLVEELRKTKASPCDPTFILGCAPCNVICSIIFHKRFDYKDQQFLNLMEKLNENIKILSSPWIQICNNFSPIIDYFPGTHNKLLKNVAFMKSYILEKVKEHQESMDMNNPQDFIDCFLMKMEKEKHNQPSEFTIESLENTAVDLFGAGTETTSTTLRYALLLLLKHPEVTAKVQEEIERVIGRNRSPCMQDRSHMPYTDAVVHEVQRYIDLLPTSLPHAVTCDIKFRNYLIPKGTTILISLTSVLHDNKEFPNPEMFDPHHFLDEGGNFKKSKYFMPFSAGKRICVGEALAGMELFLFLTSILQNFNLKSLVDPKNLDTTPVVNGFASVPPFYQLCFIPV
Series [3] in a line: Drug excretion in human urine at 20 mg, po. It is filed as ADME, tissue-based. The conditions noted are these: read-out: Drug excretion.
Series [4] addresses ATP-binding cassette sub-family C member 2 (Homo sapiens, UniProt Q92887). The experiment in a line: Inhibition of human MRP2.
The target in series [5] is T2, Broad substrate specificity ATP-binding cassette transporter ABCG2 (Homo sapiens, UniProt Q9UNQ0).
T2 sequence (Q9UNQ0 whole entry): T1 sequence (Q9UNQ0 whole entry)
The experiment in a line: Inhibition of BCRP (unknown origin) expressed in MDCK2 cells assessed as basolateral to apical transport of [14C]cimetidine after 90 mins by liquid scintillation counting analysis. The series is classed as ADME, cell-based, MDCK-II.

In series [6] the target is Cytochrome P450 2C19 (Homo sapiens, UniProt P33261). In words: Inhibition of CYP2C19 in human liver microsomes using S-mephenytoin as substrate preincubated for 20 mins with substrate prior to initiation of reaction with NADPH by HPLC analysis. The series is classed as ADME. On the technique in general: Liver microsomes are a subcellular fraction often used to study metabolism.
Cytochrome P450 2C19, sequence (P33261 whole entry): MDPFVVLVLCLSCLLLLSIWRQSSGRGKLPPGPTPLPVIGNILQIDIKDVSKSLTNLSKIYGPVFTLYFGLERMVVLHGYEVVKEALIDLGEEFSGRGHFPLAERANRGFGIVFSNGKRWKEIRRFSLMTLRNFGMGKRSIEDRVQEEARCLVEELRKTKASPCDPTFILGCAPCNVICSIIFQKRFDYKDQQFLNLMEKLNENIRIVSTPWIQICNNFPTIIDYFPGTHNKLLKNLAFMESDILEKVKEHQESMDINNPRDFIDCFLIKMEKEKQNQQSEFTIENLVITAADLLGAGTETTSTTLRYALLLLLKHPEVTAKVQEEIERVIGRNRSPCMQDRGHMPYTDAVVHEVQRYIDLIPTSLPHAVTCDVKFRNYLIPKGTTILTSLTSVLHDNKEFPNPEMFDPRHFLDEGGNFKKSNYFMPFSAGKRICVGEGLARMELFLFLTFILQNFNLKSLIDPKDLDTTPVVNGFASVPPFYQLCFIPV

In series [7] the target is UDP-glucuronosyltransferase 2B7 (Homo sapiens, UniProt P16662). The experiment in a line: Inhibition of human recombinant UGT2B7 expressed in supersomes assessed as 7-HFC glucuronidation up to 100 uM by fluoresence analysis. It is filed as ADME. The conditions noted are these: recombinant enzyme.
UDP-glucuronosyltransferase 2B7, sequence (P16662 whole entry): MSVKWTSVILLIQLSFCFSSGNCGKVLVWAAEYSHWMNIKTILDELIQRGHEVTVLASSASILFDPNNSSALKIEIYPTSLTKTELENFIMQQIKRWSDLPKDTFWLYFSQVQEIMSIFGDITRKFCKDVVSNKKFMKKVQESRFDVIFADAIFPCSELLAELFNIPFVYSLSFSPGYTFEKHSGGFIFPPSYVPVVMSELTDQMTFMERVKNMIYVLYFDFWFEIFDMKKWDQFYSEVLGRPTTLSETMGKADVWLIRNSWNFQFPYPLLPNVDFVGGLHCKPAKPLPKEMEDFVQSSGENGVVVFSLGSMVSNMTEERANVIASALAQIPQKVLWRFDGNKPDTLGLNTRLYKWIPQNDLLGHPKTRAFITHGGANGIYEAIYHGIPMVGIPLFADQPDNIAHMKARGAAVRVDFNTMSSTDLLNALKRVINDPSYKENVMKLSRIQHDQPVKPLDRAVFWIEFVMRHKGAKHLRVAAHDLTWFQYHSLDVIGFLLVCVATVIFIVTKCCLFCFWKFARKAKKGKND
The target in series [8] is T2, Broad substrate specificity ATP-binding cassette transporter ABCG2. The experiment in a line: Inhibition of human BCRP. It is filed as ADME.
Series [9] shares this target. The experiment in a line: Inhibition of BCRP (unknown origin) expressed in MDCK2 cells assessed as basolateral to apical transport of [14C]cimetidine at 100 uM after 90 mins by liquid scintillation counting analysis. The conditions noted are these: mdck-ii, 1.5 h. It is filed as ADME, cell-based.
For series [10], the target named is T3, Cytochrome P450 1A2 (Homo sapiens, UniProt P05177).
T3 sequence (P05177 whole entry): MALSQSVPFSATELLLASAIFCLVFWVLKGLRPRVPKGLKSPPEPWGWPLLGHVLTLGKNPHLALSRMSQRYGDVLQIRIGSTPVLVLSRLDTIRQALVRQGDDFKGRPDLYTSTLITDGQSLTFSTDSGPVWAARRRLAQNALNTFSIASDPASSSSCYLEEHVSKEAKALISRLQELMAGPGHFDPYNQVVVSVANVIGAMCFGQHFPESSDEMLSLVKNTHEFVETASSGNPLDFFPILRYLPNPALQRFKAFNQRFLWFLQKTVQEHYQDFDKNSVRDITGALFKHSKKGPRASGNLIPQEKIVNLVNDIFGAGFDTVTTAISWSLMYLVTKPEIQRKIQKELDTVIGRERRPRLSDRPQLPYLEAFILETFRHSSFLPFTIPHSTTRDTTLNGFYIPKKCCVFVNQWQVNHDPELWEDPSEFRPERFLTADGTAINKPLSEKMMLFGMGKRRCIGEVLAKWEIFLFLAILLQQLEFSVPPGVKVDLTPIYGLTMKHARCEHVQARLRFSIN
In words: Metabolism-dependent inhibition of CYP1A2 in human liver microsomes using phenacetin as substrate preincubated for 20 mins with NADPH prior to initiation of reaction with probe substrate by HPLC analysis. It is filed as ADME.

In series [11] the target is Solute carrier organic anion transporter family member 1B1 (Homo sapiens, UniProt Q9Y6L6). The experiment in a line: Inhibition of human OATP1B1 expressed in CHO cells using [3H]estradiol 17beta-D-glucuronide as substrate by liquid scintillation counting analysis. The series is classed as ADME, cell-based.
Solute carrier organic anion transporter family member 1B1, sequence (Q9Y6L6 whole entry): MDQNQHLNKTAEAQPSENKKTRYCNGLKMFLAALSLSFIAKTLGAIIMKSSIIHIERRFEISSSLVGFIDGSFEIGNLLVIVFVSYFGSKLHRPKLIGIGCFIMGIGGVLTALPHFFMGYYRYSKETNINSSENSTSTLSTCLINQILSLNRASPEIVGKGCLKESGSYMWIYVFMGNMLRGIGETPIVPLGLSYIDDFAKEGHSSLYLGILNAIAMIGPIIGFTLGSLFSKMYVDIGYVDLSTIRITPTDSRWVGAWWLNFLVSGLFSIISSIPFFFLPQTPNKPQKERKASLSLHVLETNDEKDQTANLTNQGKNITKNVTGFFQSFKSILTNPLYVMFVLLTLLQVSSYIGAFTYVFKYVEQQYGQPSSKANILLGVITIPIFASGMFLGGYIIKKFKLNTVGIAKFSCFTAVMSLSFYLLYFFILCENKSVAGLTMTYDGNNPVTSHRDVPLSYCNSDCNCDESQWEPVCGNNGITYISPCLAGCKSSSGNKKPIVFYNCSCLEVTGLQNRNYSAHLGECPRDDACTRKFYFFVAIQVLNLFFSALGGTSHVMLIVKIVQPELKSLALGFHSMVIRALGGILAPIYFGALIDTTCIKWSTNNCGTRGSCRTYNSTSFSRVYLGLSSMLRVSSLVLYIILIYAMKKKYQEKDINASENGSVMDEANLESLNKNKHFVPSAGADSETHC
Series [12] deals with CYP2C9 (Homo sapiens, UniProt P11712). The experiment in a line: Inhibition of CYP2C9 in human liver microsomes using diclofenac as substrate at 100 uM preincubated for 20 mins with substrate prior to initiation of reaction with NADPH by HPLC analysis. The series is classed as ADME. The settings on record: probe diclofenac.
CYP2C9, sequence (P11712 whole entry): as the sequence (P11712 whole entry) above
Series [13] has as its target T3, Cytochrome P450 1A2. In words: Drug metabolism in supersomes expressing human recombinant CYP1A2 assessed as NADPH-fortified enzyme-mediated metabolite formation at 5 uM after 120 mins by radio HPLC analysis. The series is classed as ADME. The settings on record: 2 h.
The nature of series [14]: In vitro passive membrane permeability across dog MDCK2 cells at 3 uM using fasted state-simulated intestinal fluid buffer at pH 5.5 on donor side and 1% human serum albumin at pH 7.4 on receiver side by liquid scintillation counting analysis. It is filed as ADME, cell-based, Canis lupus familiaris, MDCK-II. The settings on record: MDCK, read-out: permeability.
The target of series [15] is T4, UDP-glucuronosyltransferase 1A1 (Homo sapiens, UniProt P22309).
T4 sequence (P22309 whole entry): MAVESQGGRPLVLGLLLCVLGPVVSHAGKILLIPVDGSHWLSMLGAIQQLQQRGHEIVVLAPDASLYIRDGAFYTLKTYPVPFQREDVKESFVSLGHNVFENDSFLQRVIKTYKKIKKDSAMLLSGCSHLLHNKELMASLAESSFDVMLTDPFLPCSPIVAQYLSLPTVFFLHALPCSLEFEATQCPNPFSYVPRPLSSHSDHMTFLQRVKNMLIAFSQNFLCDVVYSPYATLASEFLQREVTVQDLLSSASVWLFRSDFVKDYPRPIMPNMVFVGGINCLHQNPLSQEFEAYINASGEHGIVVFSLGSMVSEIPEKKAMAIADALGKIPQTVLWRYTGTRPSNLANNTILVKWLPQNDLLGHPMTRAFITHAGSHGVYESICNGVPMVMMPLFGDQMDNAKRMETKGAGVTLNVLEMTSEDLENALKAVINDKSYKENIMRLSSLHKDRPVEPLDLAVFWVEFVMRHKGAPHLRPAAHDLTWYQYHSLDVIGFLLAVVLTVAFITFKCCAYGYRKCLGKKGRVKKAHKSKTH
The experiment in a line: Inhibition of human recombinant UGT1A1 expressed in supersomes assessed as scopoletin glucuronidation by fluorescence analysis. It is filed as ADME.

pIC50: −log10 of the molar value. Some results are limits rather than exact numbers.

ATP-binding cassette sub-family C member 2, sequence (Q92887 whole entry): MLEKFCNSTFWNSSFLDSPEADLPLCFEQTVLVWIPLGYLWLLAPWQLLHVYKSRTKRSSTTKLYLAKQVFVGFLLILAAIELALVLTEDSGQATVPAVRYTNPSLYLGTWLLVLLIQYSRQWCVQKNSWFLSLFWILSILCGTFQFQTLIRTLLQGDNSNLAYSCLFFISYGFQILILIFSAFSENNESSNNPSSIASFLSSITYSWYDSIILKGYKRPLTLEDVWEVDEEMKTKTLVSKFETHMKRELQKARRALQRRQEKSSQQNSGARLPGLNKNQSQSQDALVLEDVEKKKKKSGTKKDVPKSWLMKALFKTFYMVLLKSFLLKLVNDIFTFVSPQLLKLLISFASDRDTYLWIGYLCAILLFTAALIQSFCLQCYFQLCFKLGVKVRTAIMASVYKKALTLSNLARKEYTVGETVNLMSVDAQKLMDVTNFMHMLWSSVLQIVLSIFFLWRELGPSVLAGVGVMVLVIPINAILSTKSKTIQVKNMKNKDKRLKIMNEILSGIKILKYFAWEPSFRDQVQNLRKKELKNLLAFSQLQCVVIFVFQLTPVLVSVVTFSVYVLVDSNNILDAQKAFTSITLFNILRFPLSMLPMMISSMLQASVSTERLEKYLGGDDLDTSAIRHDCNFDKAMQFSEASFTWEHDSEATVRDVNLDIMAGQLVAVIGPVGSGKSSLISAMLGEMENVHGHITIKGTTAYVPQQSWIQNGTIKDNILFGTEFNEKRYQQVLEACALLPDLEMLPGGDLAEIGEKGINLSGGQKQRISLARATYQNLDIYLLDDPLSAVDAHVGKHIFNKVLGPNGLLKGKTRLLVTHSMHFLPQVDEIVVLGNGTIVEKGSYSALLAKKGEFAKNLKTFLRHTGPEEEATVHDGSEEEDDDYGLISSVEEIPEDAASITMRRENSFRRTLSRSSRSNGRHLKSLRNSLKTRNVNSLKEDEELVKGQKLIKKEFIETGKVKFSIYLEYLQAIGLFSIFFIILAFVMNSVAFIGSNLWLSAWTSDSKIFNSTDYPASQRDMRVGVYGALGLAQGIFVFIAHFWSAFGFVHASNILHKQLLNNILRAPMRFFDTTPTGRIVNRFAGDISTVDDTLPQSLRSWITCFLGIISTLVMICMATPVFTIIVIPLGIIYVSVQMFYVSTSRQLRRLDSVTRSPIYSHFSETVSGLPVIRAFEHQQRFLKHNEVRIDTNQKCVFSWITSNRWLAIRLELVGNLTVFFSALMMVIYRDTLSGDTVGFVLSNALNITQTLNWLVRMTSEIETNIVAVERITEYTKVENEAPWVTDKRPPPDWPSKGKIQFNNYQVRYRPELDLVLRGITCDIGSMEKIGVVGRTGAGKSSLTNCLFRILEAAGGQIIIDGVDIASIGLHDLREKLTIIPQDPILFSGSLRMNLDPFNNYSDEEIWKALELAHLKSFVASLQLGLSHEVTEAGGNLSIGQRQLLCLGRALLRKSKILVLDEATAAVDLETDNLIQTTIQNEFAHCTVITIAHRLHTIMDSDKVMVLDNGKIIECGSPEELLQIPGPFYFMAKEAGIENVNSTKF

In general, pIC50 refers to −log10 of the IC50, conventionally taken in molar units. By inhibition is commonly meant how much of the control response was suppressed. Turning to `C[C@@H]1CCO[C@H]2Cn3cc(C(=O)NCc4ccc(F)cc4F)c(=O)c(O)c3C(=O)N12` [DOLUTEGRAVIR], the recovery at 3 µM in series [1] worked out at 81%. For the same compound, the Drug metabolism result in [2] and in [13] was “metabolite_not_detected” each time. For the same compound, the dose excreted in [3] amounted to 31.6%. For the same compound, the negative logarithm of the IC50 (pIC50) in series [4] is below 4.05; in series [5], below 4.52; in series [6] it was below 4.00; in [8] it was 4.17; in [10] it was below 4.00; in [11], below 4.00. In addition, in series [15], the pIC50 is below 4.00. Further, the “inhibition (INH)” value was “Not Active” in series [7] and 50% in [9]. Also, at 100 µM the inhibition in [12] was 20%. Besides, the Papp at 3 µM in [14] is 26.5 ×10⁻⁶ cm/s.
